Assay results: PubChem BioAssay AID256 (DTP/NCI, 2004)
Where “and” joins values, the source holds several entries; their conditions need not be identical. Equal entries are not always repeated. Toxic doses and inconclusive results are not listed. How the source made its calls: active means survival T/C of 150% or more; inactive means T/C below 125% in these data.

Test system: CD2F1 mice, L1210 leukemia ip, survival T/C
Test: NCI In Vivo Anticancer Drug Screen. Data for tumor model L1210 Leukemia (intraperitoneal) in CD2F1 (CDF1) mice
Settings: higher = longer survival
In short: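 Mice carrying a transplanted tumor received test compound or vehicle alone. The value is the measurement in the treated group divided by that in the vehicle-treated control group.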

[1] = endpoint: mean survival time, dose: 100.0 mg/kg/injection, schedule: Q04DX002 (ip), vehicle: saline with Tween-80
[2] = endpoint: mean survival time, dose: 200.0 mg/kg/injection, schedule: Q04DX002 (ip), vehicle: saline with Tween-80
[3] = endpoint: mean survival time, dose: 400.0 mg/kg/injection, schedule: Q04DX002 (ip), vehicle: saline with Tween-80
[4] = endpoint: mean survival time, dose: 100.0 mg/kg/injection, schedule: Q01DX001 (ip), vehicle: saline with Tween-80
[5] = endpoint: mean survival time, dose: 50.0 mg/kg/injection, schedule: Q01DX009 (ip), vehicle: saline with Tween-80
[6] = endpoint: mean survival time, dose: 100.0 mg/kg/injection, schedule: Q01DX009 (ip), vehicle: saline with Tween-80
[7] = endpoint: mean survival time, dose: 100.0 mg/kg/injection, schedule: Q04DX002 (ip), vehicle: saline
[8] = endpoint: mean survival time, dose: 200.0 mg/kg/injection, schedule: Q01DX009 (ip), vehicle: saline with Tween-80
[9] = endpoint: mean survival time, dose: 200.0 mg/kg/injection, schedule: Q04DX002 (ip), vehicle: saline
[10] = endpoint: mean survival time, dose: 400.0 mg/kg/injection, schedule: Q01DX009 (ip), vehicle: saline with Tween-80
[11] = endpoint: mean survival time, dose: 400.0 mg/kg/injection, schedule: Q04DX002 (ip), vehicle: saline
[12] = endpoint: mean survival time, dose: 100.0 mg/kg/injection, schedule: Q04DX003 (ip), vehicle: saline with Tween-80
[13] = endpoint: mean survival time, dose: 200.0 mg/kg/injection, schedule: Q04DX003 (ip), vehicle: saline with Tween-80
[14] = endpoint: mean survival time, dose: 400.0 mg/kg/injection, schedule: Q04DX003 (ip), vehicle: saline with Tween-80

Measured: T/C

O=S(=O)(O)c1ccc2ncccc2c1
inactive: endpoint: mean survival time, dose: 50.0 mg/kg/injection, schedule: Q04DX002 (ip), vehicle: saline with Tween-80 111 % of control

CC(C)(C)c1ccc(OC(=S)c2ccccc2)cc1
inactive: [1] 104 % of control | [2] 89 % of control | [3] 89 % of control

Cc1cccc(Nc2c3ccccc3nc3ccccc23)c1
inactive: [4] 100 % of control

CCCCCCCCCCCC(=O)CCCCC
inactive: endpoint: mean survival time, dose: 100.0 mg/kg/injection, schedule: Q04DX003 (ip), vehicle: other 96 % of control | endpoint: mean survival time, dose: 200.0 mg/kg/injection, schedule: Q04DX003 (ip), vehicle: other 97 % of control | endpoint: mean survival time, dose: 400.0 mg/kg/injection, schedule: Q04DX003 (ip), vehicle: other 97 % of control

CCCC(=O)Nc1ccn(C2OC(CO)C(O)C2O)c(=O)n1 (stereo unspecified)
inactive: [5] 98 % of control | endpoint: mean survival time, dose: 50.0 mg/kg/injection, schedule: Q04DX002 (ip), vehicle: saline 100 % of control | [6] 102 % of control | [7] 97 % of control | [8] 102 % of control | [9] 97 % of control | [10] 104 % of control | [11] 97 % of control | endpoint: mean survival time, dose: 600.0 mg/kg/injection, schedule: Q04DX002 (ip), vehicle: saline 97 % of control

O=C1CSC(=O)N1
inactive: [12] 94 % of control | [13] 93 % of control | [14] 92 % of control

CS(=O)(=O)C(Br)S(C)(=O)=O
inactive: endpoint: mean survival time, dose: 3.13 mg/kg/injection, schedule: Q01DX009 (ip), vehicle: saline 102 % of control | endpoint: mean survival time, dose: 6.25 mg/kg/injection, schedule: Q01DX009 (ip), vehicle: saline 102 % of control | endpoint: mean survival time, dose: 6.25 mg/kg/injection, schedule: Q04DX003 (ip), vehicle: saline 96 % of control | endpoint: mean survival time, dose: 12.5 mg/kg/injection, schedule: Q01DX009 (ip), vehicle: saline 101 % of control | endpoint: mean survival time, dose: 12.5 mg/kg/injection, schedule: Q04DX003 (ip), vehicle: saline 93 % of control | endpoint: mean survival time, dose: 25.0 mg/kg/injection, schedule: Q04DX003 (ip), vehicle: saline 109 % of control

O=S(=O)(O)c1cccc2cnccc12
inactive: [6] 98 % of control | endpoint: mean survival time, dose: 100.0 mg/kg/injection, schedule: Q04DX003 (ip), vehicle: saline sonified 93 % of control | [8] 96 % of control | endpoint: mean survival time, dose: 200.0 mg/kg/injection, schedule: Q04DX003 (ip), vehicle: saline sonified 98 % of control | [10] 93 % of control | endpoint: mean survival time, dose: 400.0 mg/kg/injection, schedule: Q04DX003 (ip), vehicle: saline sonified 98 % of control

Nc1ncnc2c1nnn2C1OC(CO)C(O)C1O (stereo unspecified)
inactive: endpoint: mean survival time, dose: 10.0 mg/kg/injection, schedule: Q01DX009 (ip), vehicle: Klucel (hydroxypropylcellulose) (HPC) 110 % of control | endpoint: mean survival time, dose: 15.0 mg/kg/injection, schedule: Q01DX009 (ip), vehicle: Klucel (hydroxypropylcellulose) (HPC) 107 % of control | endpoint: mean survival time, dose: 28.0 mg/kg/injection, schedule: Q01DX009 (ip), vehicle: Klucel (hydroxypropylcellulose) (HPC) 121 % of control | endpoint: mean survival time, dose: 63.0 mg/kg/injection, schedule: Q01DX009 (ip), vehicle: Klucel (hydroxypropylcellulose) (HPC) 115 % of control

CCCCCCC/C=N/NC(=O)c1ccc[n+](C)c1
inactive: [4] 97 % of control | endpoint: mean survival time, dose: 200.0 mg/kg/injection, schedule: Q01DX001 (ip), vehicle: saline with Tween-80 97 % of control

CN(N=O)C(=O)Nc1ccc(C2CC(=O)N(C)C2=O)cc1 (stereo unspecified)
inactive: endpoint: mean survival time, dose: 12.5 mg/kg/injection, schedule: Q01DX001 (ip), vehicle: distilled water + Tween-80 113 % of control | endpoint: mean survival time, dose: 25.0 mg/kg/injection, schedule: Q01DX001 (ip), vehicle: distilled water + Tween-80 101 % of control and 106 % of control | endpoint: mean survival time, dose: 50.0 mg/kg/injection, schedule: Q01DX001 (ip), vehicle: distilled water + Tween-80 108 % of control and 112 % of control | endpoint: mean survival time, dose: 100.0 mg/kg/injection, schedule: Q01DX001 (ip), vehicle: distilled water + Tween-80 113 % of control | endpoint: mean survival time, dose: 200.0 mg/kg/injection, schedule: Q01DX001 (ip), vehicle: distilled water + Tween-80 112 % of control

CC1COC(C(=O)O)(c2ccccc2)O1 (stereo unspecified)
inactive: [7] 96 % of control | [9] 108 % of control | [11] 100 % of control

O=c1[nH]c(=S)c(SCc2ccccc2)nn1C1OC(COP(=O)(O)O)C(O)C1O (stereo unspecified)
inactive: endpoint: median survival time, dose: 5.63 mg/kg/injection, schedule: Q01DX005 (ip), vehicle: water 98 % of control | endpoint: median survival time, dose: 11.25 mg/kg/injection, schedule: Q01DX005 (ip), vehicle: water 98 % of control | endpoint: median survival time, dose: 22.5 mg/kg/injection, schedule: Q01DX005 (ip), vehicle: water 102 % of control | endpoint: median survival time, dose: 45.0 mg/kg/injection, schedule: Q01DX005 (ip), vehicle: water 105 % of control | endpoint: median survival time, dose: 90.0 mg/kg/injection, schedule: Q01DX005 (ip), vehicle: water 103 % of control

O=C(NNC(=O)c1ccccc1Cl)Nc1ccc(F)c(Cl)c1
inactive: [6] 91 % of control | [8] 86 % of control | [10] 87 % of control

Cc1cc2nc(Cc3ccccc3)[nH]c2cc1C
inactive: endpoint: mean survival time, dose: 12.5 mg/kg/injection, schedule: Q01DX009 (ip), vehicle: saline with Tween-80 102 % of control | endpoint: mean survival time, dose: 25.0 mg/kg/injection, schedule: Q01DX009 (ip), vehicle: saline with Tween-80 95 % of control | [5] 91 % of control | [12] 94 % of control | [13] 86 % of control

COc1c(C)c2c(c3c1CC(=O)O3)C(=O)OC2
inactive: [1] 108 % of control | [2] 112 % of control | [3] 112 % of control

C[Si](C)(C)C1C=CC=C1
inactive: [1] 100 % of control | [2] 100 % of control | [3] 92 % of control

COc1ccc(CCNC(=O)C(c2ccccc2)c2ccccc2)cc1OC
inactive: [6] 97 % of control | [12] 103 % of control | [8] 90 % of control | [13] 101 % of control | [10] 92 % of control | [14] 100 % of control
